What is called IC50 is the concentration needed to halve the response being measured. Lower therefore signals inhibition by little substance.

The source made the active and inactive calls. No cut-off for these calls is given here. Where a SMILES comes first, the peptide text is derived from it. A value given as a limit tells only on which side of the number the result lay.

Seven compounds from ChEMBL document CHEMBL1131078, “Small molecular probes for G-protein-coupled C5a receptors: conformationally constrained antagonists derived from the C terminus of the human plasma protein C5a” (J Med Chem, 1998) can be followed below.

The species entered for one experiment is Homo sapiens. As to the kind of experiment: Agonist activity at dose range 0.1 nM to 1 mM in human PMNs; No agonistic activity. The experiment is classed as functional.
Experiment [1] concerns the target T1, C5a anaphylatoxin chemotactic receptor 1 (Homo sapiens, UniProt P21730).
T1 sequence (P21730 whole entry): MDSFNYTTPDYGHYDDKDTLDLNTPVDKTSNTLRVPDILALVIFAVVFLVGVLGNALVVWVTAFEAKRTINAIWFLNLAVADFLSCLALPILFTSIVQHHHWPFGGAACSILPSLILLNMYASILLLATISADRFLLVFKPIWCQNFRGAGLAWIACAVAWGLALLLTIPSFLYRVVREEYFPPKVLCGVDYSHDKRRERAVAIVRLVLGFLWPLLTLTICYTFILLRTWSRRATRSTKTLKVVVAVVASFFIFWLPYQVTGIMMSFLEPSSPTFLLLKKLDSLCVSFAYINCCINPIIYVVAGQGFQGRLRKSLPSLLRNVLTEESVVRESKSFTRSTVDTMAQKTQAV
As to the kind of experiment: 50% reduction in binding of [125I]C5a to human polymorphonuclear cells (PMNs). The experiment is classed as cell-based, PMN.

Experiment [2] has as its target T1, C5a anaphylatoxin chemotactic receptor 1. As to the kind of experiment: 50% reduction in myeloperoxidase secretion from human PMNs mediated by 100 nM C5a.

For the compound `CN[C@@H](Cc1ccccc1)C(=O)N[C@@H](CCCCN)C(=O)N1CCC[C@H]1C(=O)N[C@H](CC1CCCCC1)C(=O)N[C@@H](Cc1c[nH]c2ccccc12)C(=O)N[C@@H](CCCN=C(N)N)C(=O)O`, the Agonistic activity result in the experiment filed under Homo sapiens is “inactive”.

`CN[C@@H](Cc1ccccc1)C(=O)N[C@@H](CCCCN)C(=O)N1CCC[C@H]1C(=O)N[C@@H](CC1CCCCC1)C(=O)N[C@@H](Cc1c[nH]c2ccccc12)C(=O)N[C@@H](CCCN=C(N)N)C(=O)O`: the Agonistic activity result in the experiment filed under Homo sapiens is “inactive”.

On to `CN[C@@H](Cc1ccccc1)C(=O)N[C@@H](CCCCN)C(=O)N1CCC[C@H]1C(=O)N[C@H](CC1CCCCC1)C(=O)N[C@@H](Cc1c[nH]c2ccccc12)C(=O)N[C@H](CCCN=C(N)N)C(N)=O`, for which the Agonistic activity entry in the experiment listed under Homo sapiens was “inactive”.

Compound `CC[C@H](C)[C@H](N)C(=O)N[C@@H](CO)C(=O)N[C@@H](Cc1cnc[nH]1)C(=O)N[C@@H](CCCCN)C(=O)N[C@@H](CC(=O)O)C(=O)N[C@@H](CCSC)C(=O)N[C@@H](CCC(N)=O)C(=O)N[C@@H](CC(C)C)C(=O)NCC(=O)N[C@@H](CCCNC(=N)N)C(=O)O` (H-ISHKDMQLGR-OH) yielded an IC50 in experiment [1] above 1000 µM.

On to `CN[C@@H](Cc1ccccc1)C(=O)N[C@@H](CCCCN)C(=O)N1CCC[C@H]1C(=O)N[C@@H](CC(C)C)C(=O)N[C@@H](Cc1c[nH]c2ccccc12)C(=O)N[C@@H](CCCN=C(N)N)C(=O)O` (HELM PEPTIDE1{[meF].K.P.L.W.R}$$$$V2.0), for which, in experiment [2], the IC50 was above 1000 µM.

Consider `CC(=O)N[C@@H](Cc1ccccc1)C(=O)N[C@H]1CCCNC(=O)[C@@H](CCCN=C(N)N)NC(=O)[C@H](Cc2c[nH]c3ccccc23)NC(=O)[C@@H](CC2CCCCC2)NC(=O)[C@@H]2CCCN2C1=O`, for which the Agonistic activity result in the experiment listed under Homo sapiens was “inactive”.

Consider `CC(=O)N[C@@H](Cc1ccccc1)C(=O)N[C@H]1CCCCNC(=O)[C@H](CCCN=C(N)N)NC(=O)[C@H](Cc2c[nH]c3ccccc23)NC(=O)[C@@H](CC2CCCCC2)NC(=O)[C@@H]2CCCN2C1=O`, for which the Agonistic activity entry in the experiment filed under Homo sapiens was “inactive”.
